Earlier results on eleven molecules are cited in US20150190331A1, “NAIL LACQUER COMPOSITION WITH HYPOSENSITIVITY” (Pakaly Enterprise Co., Ltd., priority 2014, published 2015).

The test system of the data set is guinea pigs. The conditions noted are these: in guinea pigs; International Journal of Toxicology 24(Suppl 5): 53-100, 2005.
For `C=C(C)C(=O)OCCCCCCCCCCCC` [Lauryl Methacrylate], the sensitizer strength result was “strong sensitizers”. As to `C=C(C)C(=O)OC1CCCCC1` [Cyclohexyl Methacrylate], the sensitizer strength entry was “moderate sensitizers”. In the case of `C=C(C)C(=O)OCCCC` [Butyl Methacrylate], the sensitizer strength result was “moderate sensitizers”. As to `C=C(C)C(=O)OCCO` [HEMA, hydroxyethylmethacrylate], the sensitizer strength result was “strong sensitizers”.

As to `C=C(C)C(=O)OCC(O)COc1ccc(C(C)(C)c2ccc(OCC(O)COC(=O)C(=C)C)cc2)cc1` (centres unmarked) [Isopropylidenediphenyl Bisglycidyl Methacrylate], the sensitizer strength entry is reported as “strong sensitizers”.

For PEG-4 Dimethacrylate, the sensitizer strength entry is on record as “not sensitizers”. In the case of `C=C(C)C(=O)OCCCCCC` [Hexyl Methacrylate], the sensitizer strength result is on record as “moderate sensitizers”.

As to `C=C(C)C(=O)OCCOCCOCCOC(=O)C(=C)C` [Triethylene Glycol Dimethacrylate], the sensitizer strength entry is given as “not sensitizers”.

`C=C(C)C(=O)OCC(CC)(COC(=O)C(=C)C)COC(=O)C(=C)C` [Trimethylolpropane Trimethacrylate]: the sensitizer strength entry is on record as “strong sensitizers”. Take Urethane Methacrylate: the sensitizer strength result is listed as “moderate sensitizers”.

Regarding `C=C(C)C(=O)OCCCO` [Hydroxypropyl Methacrylate], the sensitizer strength entry is on record as “weak sensitizer”.
